Laboratory results taken from US6358885B1, “Substituted phenylheterocyclic herbicides” (Mississippi State University, priority 1992, dated 2002).

Tests used:
giant foxtail = assay: Test C preemergence/postemergence greenhouse plant response rating 0 to 100; type: in vivo, Setaria faberii; settings: for Plant response rating, Giant foxtail: 125 g/ha, 0 to 100 scale
Summary of the method: (§1)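 Compounds in non-phytotoxic solvent went onto sandy loam before emergence (seeded one day earlier) or onto plants at the one-to-four leaf stage. Duck salad was treated via flood water (~2.5 cm, maintained) over silt loam.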

rice [1] = assay: Test B preemergence/postemergence greenhouse plant response rating 0 to 10; type: in vivo, Oryza sativa; settings: for Plant response rating, Rice: 0 to 10 scale
Summary of the method: (§2)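 Postemergence treatment of plants two to eighteen cm tall ran alongside preemergence treatment of planted seed, each using compound in a non-phytotoxic solvent.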

bedstraw = assay: Test C preemergence/postemergence greenhouse plant response rating 0 to 100; type: in vivo, Galium aparine; settings: for Plant response rating, Bedstraw: 125 g/ha, 0 to 100 scale
Summary of the method: as §1

duck salad = assay: Test C flood test plant response rating 0 to 100; type: in vivo, Heteranthera limosa
Summary of the method: as §1

purple nutsedge = assay: Test B preemergence/postemergence greenhouse plant response rating 0 to 10; type: in vivo, Cyperus rotundus; settings: for Plant response rating, Nutsedge: 0 to 10 scale
Summary of the method: as §2

corn = assay: Test C preemergence/postemergence greenhouse plant response rating 0 to 100; type: in vivo, Zea mays; settings: for Plant response rating, Corn: 125 g/ha, 0 to 100 scale
Summary of the method: as §1

sugar beet = assay: as above; type: in vivo, Beta vulgaris; settings: for Plant response rating, Sugar beet: 125 g/ha, 0 to 100 scale
Summary of the method: as §1

rice [2] = assay: Test C flood test plant response rating 0 to 100; type: in vivo, Oryza sativa
Summary of the method: (§3)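 Compounds in non-phytotoxic solvent applied preemergence to sandy loam one day after planting, postemergence at the 1–4 leaf stage, or to ~2.5 cm floodwater over silt loam.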

wild buckwheat = assay: Test B preemergence/postemergence greenhouse plant response rating 0 to 10; type: in vivo, Polygonum convolvulus; settings: for Plant response rating, Wild buckwheat: 0 to 10 scale
Summary of the method: as §2

chickweed = assay: Test C preemergence/postemergence greenhouse plant response rating 0 to 100; type: in vivo, Stellaria media; settings: for Plant response rating, Chickweed: 125 g/ha, 0 to 100 scale
Summary of the method: as §1

pigweed = assay: as above; type: in vivo, Amaranthusretroflexus; settings: for Plant response rating Pigweed: 125 g/ha, 0 to 100 scale
Summary of the method: as §1

cotton = assay: as above; type: in vivo, Gossypium hirsutum; settings: for Plant response rating, Cotton: 125 g/ha, 0 to 100 scale
Summary of the method: as §1

umbrella sedge = assay: Test C flood test plant response rating 0 to 100; type: in vivo, Cyperus difformis
Summary of the method: as §3

soybean = assay: Test B preemergence/postemergence greenhouse plant response rating 0 to 10; type: in vivo, Glycine max; settings: for Plant response rating, Soybean: 0 to 10 scale
Summary of the method: as §2

blackgrass = assay: Test C preemergence/postemergence greenhouse plant response rating 0 to 100; type: in vivo, Alopecurus myosuroides; settings: for Plant response rating, Blackgrass: 125 g/ha, 0 to 100 scale
Summary of the method: as §1

cocklebur = assay: Test B preemergence/postemergence greenhouse plant response rating 0 to 10; type: in vivo, Xanthium pensylvanicum; settings: for Plant response rating, Cocklebur: 0 to 10 scale
Summary of the method: as §2

velvetleaf = assay: Test C preemergence/postemergence greenhouse plant response rating 0 to 100; type: in vivo, Abutilon theophrasti; settings: for Plant response rating, Velvetleaf: 125 g/ha, 0 to 100 scale
Summary of the method: as §1

[3] = POSTEMERGENCE section, flood test, Rate 2 g/ha
[4] = Rate 8 g/ha, under POSTEMERGENCE head (flood test species)
[5] = Rate 31 g/ha, under POSTEMERGENCE head (flood test species)
[6] = flood test species listed under POSTEMERGENCE, 125 g/ha, 0 to 100 scale

Compound: CCOCOc1cc(-c2nn3c(c2Cl)CCCC3)c(F)cc1Cl [Compound 59]
- Plant response rating, Giant foxtail (giant foxtail; POSTEMERGENCE): 90
- Plant response rating (0 to 100), Giant foxtail (giant foxtail; POSTEMERGENCE, Rate 2 g/ha): 20
- Plant response rating, Giant foxtail (giant foxtail; PREEMERGENCE): 90
- Plant response rating (0 to 100), Giant foxtail (giant foxtail; PREEMERGENCE, Rate 2 g/ha): 0
- Plant response rating (0 to 100), Giant foxtail (giant foxtail; Rate 8 g/ha, POSTEMERGENCE): 40
- Plant response rating (0 to 100), Giant foxtail (giant foxtail; Rate 8 g/ha, PREEMERGENCE): 10
- Plant response rating (0 to 100), Giant foxtail (giant foxtail; Rate 31 g/ha, POSTEMERGENCE): 70
- Plant response rating (0 to 100), Giant foxtail (giant foxtail; Rate 31 g/ha, PREEMERGENCE): 50
- Plant response rating, Rice (rice [1]; POSTEMERGENCE, Rate 50 g/ha): 5
- Plant response rating, Rice (rice [1]; PREEMERGENCE, Rate 50 g/ha): 0
- Plant response rating (0 to 10 scale), Rice (rice [1]; PREEMERGENCE, Rate 200 g/ha): 1
- Plant response rating, Rice (rice [1]; Rate 200 g/ha, POSTEMERGENCE): 5
- Plant response rating, Bedstraw (bedstraw; POSTEMERGENCE): 100
- Plant response rating (0 to 100), Bedstraw (bedstraw; POSTEMERGENCE, Rate 2 g/ha): 50
- Plant response rating, Bedstraw (bedstraw; PREEMERGENCE): 70
- Plant response rating (0 to 100), Bedstraw (bedstraw; PREEMERGENCE, Rate 2 g/ha): 0
- Plant response rating (0 to 100), Bedstraw (bedstraw; Rate 8 g/ha, POSTEMERGENCE): 75
- Plant response rating (0 to 100), Bedstraw (bedstraw; Rate 8 g/ha, PREEMERGENCE): 0
- Plant response rating (0 to 100), Bedstraw (bedstraw; Rate 31 g/ha, POSTEMERGENCE): 100
- Plant response rating (0 to 100), Bedstraw (bedstraw; Rate 31 g/ha, PREEMERGENCE): 50
- Plant response rating (0 to 100), Duck salad (duck salad; [3]): 0
- Plant response rating (0 to 100), Duck salad (duck salad; [4]): 0
- Plant response rating (0 to 100), Duck salad (duck salad; [5]): 40
- Plant response rating Duck salad (duck salad; [6]): 80
- Plant response rating, Nutsedge (purple nutsedge; POSTEMERGENCE, Rate 50 g/ha): 2
- Plant response rating, Nutsedge (purple nutsedge; PREEMERGENCE, Rate 50 g/ha): 0
- Plant response rating (0 to 10 scale), Nutsedge (purple nutsedge; PREEMERGENCE, Rate 200 g/ha): 0
- Plant response rating, Nutsedge (purple nutsedge; Rate 200 g/ha, POSTEMERGENCE): 5
- Plant response rating, Corn (corn; POSTEMERGENCE): 65
- Plant response rating (0 to 100), Corn (corn; POSTEMERGENCE, Rate 2 g/ha): 30
- Plant response rating, Corn (corn; PREEMERGENCE): 0
- Plant response rating (0 to 100), Corn (corn; PREEMERGENCE, Rate 2 g/ha): 0
- Plant response rating (0 to 100), Corn (corn; Rate 8 g/ha, POSTEMERGENCE): 40
- Plant response rating (0 to 100), Corn (corn; Rate 8 g/ha, PREEMERGENCE): 0
- Plant response rating (0 to 100), Corn (corn; Rate 31 g/ha, POSTEMERGENCE): 50
- Plant response rating (0 to 100), Corn (corn; Rate 31 g/ha, PREEMERGENCE): 0
- Plant response rating, Sugar beet (sugar beet; POSTEMERGENCE): 100
- Plant response rating (0 to 100), Sugar beet (sugar beet; POSTEMERGENCE, Rate 2 g/ha): 90
- Plant response rating, Sugar beet (sugar beet; PREEMERGENCE): 100
- Plant response rating (0 to 100), Sugar beet (sugar beet; PREEMERGENCE, Rate 2 g/ha): 0
- Plant response rating (0 to 100), Sugar beet (sugar beet; Rate 8 g/ha, POSTEMERGENCE): 100
- Plant response rating (0 to 100), Sugar beet (sugar beet; Rate 8 g/ha, PREEMERGENCE): 30
- Plant response rating (0 to 100), Sugar beet (sugar beet; Rate 31 g/ha, POSTEMERGENCE): 100
- Plant response rating (0 to 100), Sugar beet (sugar beet; Rate 31 g/ha, PREEMERGENCE): 50
- Plant response rating (0 to 100), Rice Japonica (rice [2]; [3]): 0
- Plant response rating (0 to 100), Rice Japonica (rice [2]; [4]): 0
- Plant response rating (0 to 100), Rice Japonica (rice [2]; [5]): 0
- Plant response rating Rice Japonica (rice [2]; [6]): 40
- Plant response rating, Wild buckwheat (wild buckwheat; POSTEMERGENCE, Rate 50 g/ha): 10
- Plant response rating, Wild buckwheat (wild buckwheat; PREEMERGENCE, Rate 50 g/ha): 10
- Plant response rating (0 to 10 scale), Wild buckwheat (wild buckwheat; PREEMERGENCE, Rate 200 g/ha): 10
- Plant response rating, Wild buckwheat (wild buckwheat; Rate 200 g/ha, POSTEMERGENCE): 10
- Plant response rating, Chickweed (chickweed; POSTEMERGENCE): 90
- Plant response rating (0 to 100), Chickweed (chickweed; POSTEMERGENCE, Rate 2 g/ha): 20
- Plant response rating, Chickweed (chickweed; PREEMERGENCE): 30
- Plant response rating (0 to 100), Chickweed (chickweed; PREEMERGENCE, Rate 2 g/ha): 0
- Plant response rating (0 to 100), Chickweed (chickweed; Rate 8 g/ha, POSTEMERGENCE): 40
- Plant response rating (0 to 100), Chickweed (chickweed; Rate 8 g/ha, PREEMERGENCE): 0
- Plant response rating (0 to 100), Chickweed (chickweed; Rate 31 g/ha, POSTEMERGENCE): 70
- Plant response rating (0 to 100), Chickweed (chickweed; Rate 31 g/ha, PREEMERGENCE): 10
- Plant response rating Pigweed (pigweed; POSTEMERGENCE): 100
- Plant response rating (0 to 100), Pigweed (pigweed; POSTEMERGENCE, Rate 2 g/ha): 30
- Plant response rating Pigweed (pigweed; PREEMERGENCE): 100
- Plant response rating (0 to 100), Pigweed (pigweed; PREEMERGENCE, Rate 2 g/ha): 0
- Plant response rating (0 to 100), Pigweed (pigweed; Rate 8 g/ha, POSTEMERGENCE): 30
- Plant response rating (0 to 100), Pigweed (pigweed; Rate 8 g/ha, PREEMERGENCE): 100
- Plant response rating (0 to 100), Pigweed (pigweed; Rate 31 g/ha, POSTEMERGENCE): 100
- Plant response rating (0 to 100), Pigweed (pigweed; Rate 31 g/ha, PREEMERGENCE): 100
- Plant response rating, Cotton (cotton; POSTEMERGENCE): 100
- Plant response rating (0 to 100), Cotton (cotton; POSTEMERGENCE, Rate 2 g/ha): 95
- Plant response rating, Cotton (cotton; PREEMERGENCE): 50
- Plant response rating (0 to 100), Cotton (cotton; PREEMERGENCE, Rate 2 g/ha): 0
- Plant response rating (0 to 100), Cotton (cotton; Rate 8 g/ha, POSTEMERGENCE): 100
- Plant response rating (0 to 100), Cotton (cotton; Rate 8 g/ha, PREEMERGENCE): 0
- Plant response rating (0 to 100), Cotton (cotton; Rate 31 g/ha, POSTEMERGENCE): 100
- Plant response rating (0 to 100), Cotton (cotton; Rate 31 g/ha, PREEMERGENCE): 10
- Plant response rating (0 to 100), Umbrella sedge (umbrella sedge; [3]): 90
- Plant response rating (0 to 100), Umbrella sedge (umbrella sedge; [4]): 0
- Plant response rating (0 to 100), Umbrella sedge (umbrella sedge; [5]): 0
- Plant response rating Umbrella sedge (umbrella sedge; [6]): 0
- Plant response rating, Soybean (soybean; POSTEMERGENCE, Rate 50 g/ha): 8
- Plant response rating, Soybean (soybean; PREEMERGENCE, Rate 50 g/ha): 0
- Plant response rating (0 to 10 scale), Soybean (soybean; PREEMERGENCE, Rate 200 g/ha): 4
- Plant response rating, Soybean (soybean; Rate 200 g/ha, POSTEMERGENCE): 7
- Plant response rating, Blackgrass (blackgrass; POSTEMERGENCE): 70
- Plant response rating (0 to 100), Blackgrass (blackgrass; POSTEMERGENCE, Rate 2 g/ha): 20
- Plant response rating, Blackgrass (blackgrass; PREEMERGENCE): 90
- Plant response rating (0 to 100), Blackgrass (blackgrass; PREEMERGENCE, Rate 2 g/ha): 0
- Plant response rating (0 to 100), Blackgrass (blackgrass; Rate 8 g/ha, POSTEMERGENCE): 30
- Plant response rating (0 to 100), Blackgrass (blackgrass; Rate 8 g/ha, PREEMERGENCE): 20
- Plant response rating (0 to 100), Blackgrass (blackgrass; Rate 31 g/ha, POSTEMERGENCE): 50
- Plant response rating (0 to 100), Blackgrass (blackgrass; Rate 31 g/ha, PREEMERGENCE): 50
- Plant response rating, Cocklebur (cocklebur; POSTEMERGENCE, Rate 50 g/ha): 7
- Plant response rating, Cocklebur (cocklebur; PREEMERGENCE, Rate 50 g/ha): 0
- Plant response rating (0 to 10 scale), Cocklebur (cocklebur; PREEMERGENCE, Rate 200 g/ha): 8
- Plant response rating, Cocklebur (cocklebur; Rate 200 g/ha, POSTEMERGENCE): 10
- Plant response rating, Velvetleaf (velvetleaf; POSTEMERGENCE): 100
- Plant response rating (0 to 100), Velvetleaf (velvetleaf; POSTEMERGENCE, Rate 2 g/ha): 50
- Plant response rating, Velvetleaf (velvetleaf; PREEMERGENCE): 100
- Plant response rating (0 to 100), Velvetleaf (velvetleaf; PREEMERGENCE, Rate 2 g/ha): 0
- Plant response rating (0 to 100), Velvetleaf (velvetleaf; Rate 8 g/ha, POSTEMERGENCE): 70
- Plant response rating (0 to 100), Velvetleaf (velvetleaf; Rate 8 g/ha, PREEMERGENCE): 40
- Plant response rating (0 to 100), Velvetleaf (velvetleaf; Rate 31 g/ha, POSTEMERGENCE): 90
- Plant response rating (0 to 100), Velvetleaf (velvetleaf; Rate 31 g/ha, PREEMERGENCE): 95
